“Also recorded” adds a separate entry of the source.
Tests used:
p53 = assay: Western blot of p53 level in A549 cells; assay type: cell-based, human; conditions: for p53 level: A549, drug concentration equivalent to IC75 (30 µM), fold over mock; for p53 induction, dose–response: A549, 24 h, 0.01, 0.1, 1, 10 µM; for p53 level, single agent / p53 level, combined treatment compared to doxorubicin alone: A549; for p53 level, single agent: 0.2 µM derivative alone or 14 µM doxorubicin alone; for p53 level, combined treatment compared to doxorubicin alone: 0.2 µM derivative plus 14 µM doxorubicin
Protocol: (§1) A549 cells were treated with different concentrations of the molecules as indicated. Cell extracts were prepared as described. Ten-20 μg of total proteins were resolved on 4–15% Mini protean TGX precast gels (Bio-Rad) and transferred to nitrocellulose membrane using 1704158 Trans-Blot Turbo Mini NC Transfer Packs (Bio-Rad) in a Trans-Blot Turbo apparatus (Bio-Rad). Membranes were blocked with 5% non-fat dry milk in 0.1% Tween-20 in PBS for 1 h, then incubated for 1 h at room temperature or overnight at 4 °C with the appropriate primary antibody. The following antibodies were employed: anti-p53 (DO-1, sc-126, Santa Cruz Biotechnology, 1:20.000), anti-p21 (2946, Cell Signaling, 1:2000), anti-MDM2 (SMP14, sc-965, Santa Cruz Biotechnology, 1:200), anti β-actin (AC-74, Sigma-Aldrich, 1:30.000); secondary anti-mouse IgG peroxidase conjugate (A9044, Sigma–Aldrich, 1:10.000) and secondary anti-rabbit peroxidase conjugate (A9169, Sigma-Aldrich, 1: 12.000). Detection was carried out with ECL FAST PICO (ECL-1002, Immunological Sciences, Roma, Italy). Chemiluminescence was analysed by Alliance LD, UVITEC Cambridge (Cambridge, UK).

p21 = assay: Western blot of p21 level in A549 cells; assay type: cell-based, human; conditions: for p21 level, single agent / p21 level, combined treatment compared to doxorubicin alone: A549; for p21 level, single agent: 0.2 µM derivative alone or 14 µM doxorubicin alone; for p21 level, combined treatment compared to doxorubicin alone: 0.2 µM derivative plus 14 µM doxorubicin
Protocol: as §1

MDM2 = assay: Western blot of MDM2 level in A549 cells; assay type: cell-based, human; conditions: for MDM2 level: A549, drug concentration equivalent to IC75 (30 µM), fold over mock; for MDM2 level, single agent / MDM2 level, combined treatment compared to doxorubicin alone: A549; for MDM2 level, single agent: 0.2 µM derivative alone or 14 µM doxorubicin alone; for MDM2 level, combined treatment compared to doxorubicin alone: 0.2 µM derivative plus 14 µM doxorubicin
Protocol: as §1

A549 cells = assay: Annexin-V-FITC / propidium iodide apoptosis assay; assay type: cell-based, human; conditions: A549, compounds at their specific IC75s, three days
Protocol: The induction of apoptosis was evaluated in A549 cells characterized by wild-type p53 and MDM2 proteins. They were plated at the opportune concentration (see above) into 25 cm^2 flasks in 10 mL complete medium. After 6–8 h the compounds were added at their specific IC75s, as previously calculated by the MTT assay.
All floating and adherent cells were harvested three days later, washed with normal saline buffer, and apoptosis determined by double staining with Annexin-V-FITC and propidium iodide (PI) (rh AnnexinV/FITC Kit, Bender MedSystem GmbH, Vienna, Austria). Briefly, 0.5 × 10^6 cells were resuspended in binding buffer 1× and stained with 5 μL of Annexin-V-FITC. After 10 min incubation 10 μL of PI were added and samples incubated for 5 min. Samples were immediately analyzed using a Flow Cytometer (FACScan, BD Biosciences, Milano, Italy) with dedicated software.

[1] = test system: A2780, A549, HepG2, MDA-MB-453; assay: MTT assay, panel of four human cancer cell lines taken together; assay type: cell-based; conditions: all four cell lines, 30 μM = arbitrary limit of pharmacological relevance
Protocol: After 6–8 h cells were treated with 20 μL containing five 1:10 fold concentrations of our compounds diluted in FCS containing 3% DMSO. As normal non-cancer cell targets we used peripheral blood lymphocytes obtained from three healthy volunteers, isolated by gradient centrifugation (Lympholyte-H Cell Separation Media, EuroClone, Pero, MI, Italy) and stimulated with 1% phytohemagglutinin and 100 U/ml recombinant IL-2. One week after stimulation cells were ready for use at 15,000/well. In both cases, after 72 h treatment, the MTT assay was applied as described elsewhere. […] IC100 and IC75 were extrapolated from the mean concentration–response curves.

HepG2 (liver) = assay: MTT antiproliferative assay, HepG2; assay type: cell-based; conditions: Homo sapiens, 72 h treatment, mean ± SD of 5–6 data
Protocol: (§2) Human tumor cell lines A2780 [ovary, adenocarcinoma, accession number HTL98008, obtained from Interlab Cell Line Collection (ICLC), Genova, Italy], A549 (lung, carcinoma, HTL03001, ICLC), MDA-MB-453 (breast, carcinoma, HTL01013, ICLC), and HepG2 (liver, carcinoma, HB-8065, American Type Culture Collection, Rockville, MA, USA ) were plated at 1.4 × 10^4/ml, 0.65 × 10^4/mL, 4.7 × 10^4/mL, and 1.0 × 10^4/mL, respectively, in 180 μL complete medium (RPMI 1640 for A2780 and A549 and DMEM for MDA-MB-453 and HepG2) into flat-bottomed 96-well microtiter plates. After 6–8 h cells were treated with 20 μL containing five 1:10 fold concentrations of our compounds diluted in FCS containing 3% DMSO. As normal non-cancer cell targets we used peripheral blood lymphocytes obtained from three healthy volunteers, isolated by gradient centrifugation (Lympholyte-H Cell Separation Media, EuroClone, Pero, MI, Italy) and stimulated with 1% phytohemagglutinin and 100 U/ml recombinant IL-2. One week after stimulation cells were ready for use at 15,000/well.
(§3) In both cases, after 72 h treatment, the MTT assay was applied as described elsewhere. The IC50 values were calculated from the analysis of single concentration–response curves, each final value is the mean of 5–6 experiments. IC100 and IC75 were extrapolated from the mean concentration–response curves.

activated PBL = assay: MTT assay on normal PBL activated with PHA and recombinant IL-2; assay type: cell-based; conditions: Homo sapiens, mean ± SD of 4–6 IC50 values
Protocol: as §2
In both cases, after 72 h treatment, the MTT assay was applied as described elsewhere. […] IC100 and IC75 were extrapolated from the mean concentration–response curves.

A2780 (ovarian) = assay: MTT antiproliferative assay, A2780; assay type: cell-based; conditions: Homo sapiens, 72 h treatment, mean ± SD of 5–6 data
Protocol: as §2, §3

A549 (lung) = assay: MTT antiproliferative assay, A549; assay type: cell-based; conditions: Homo sapiens, 72 h treatment, mean ± SD of 5–6 data
Protocol: as §2, §3

SMILES	melting point	p53 level (p53)	MDM2 level (MDM2)	apoptotic activity (A549 cells)	IC50 [1]	p53 induction, dose–response (p53)	p53 level, single agent (p53)	p53 level, combined treatment compared to doxorubicin alone (p53)	p21 level, single agent (p21)	p21 level, combined treatment compared to doxorubicin alone (p21)	MDM2 level, single agent (MDM2)	MDM2 level, combined treatment compared to doxorubicin alone (MDM2)	IC50 (activated PBL; PBL A)	IC50 (activated PBL; PBL B)	IC50 (activated PBL; PBL C)	other results
Cc1c(C(=O)C2C(c3ccco3)C3CSCN3C23C(=O)Nc2ccccc23)cnn1-c1ccccc1 (centres unmarked) [8b, 7'-(Furan-2-yl)-6'-(5-methyl-1-phenyl-1H-pyrazole-4-carbonyl)-3',6',7',7a'-tetrahydro-1'H-spiro[indoline-3,5'-pyrrolo[1,2-c]thiazol]-2-one]	227 to 228 °C	significantly increased; also recorded: able to activate p53	an increase	significantly trigger apoptosis	≥ 30 µM											p21 level (p21; A549, drug concentration equivalent to IC75 (30 µM), fold over mock): an increase; apoptotic activity (A549 cells; listed as 8t): highly significant apoptotic activity
Cc1c(C(=O)C2C(c3ccc(Cl)cc3Cl)C3CSCN3C23C(=O)Nc2ccccc23)cnn1-c1ccccc1 (centres unmarked) [8h, 7'-(2,4-Dichlorophenyl)-6'-(5-methyl-1-phenyl-1H-pyrazole-4-carbonyl)-1',6',7',7a'-tetrahydro-3'H-spiro[indoline-3,5'-pyrrolo[1,2-c]thiazol]-2-one]	141 to 142 °C			slightly trigger apoptosis		able to induce p53 only at high concentrations; also recorded: induce p53, although not at high level and only at high concentrations	did not increase	no further increases; also recorded: did not trigger a further	did not increase	no further increases	slight but not significant MDM2 increase	no further increases; also recorded: did not trigger a further	53.6 ± 2.1 µM	57.4 ± 5.5 µM	65.8 ± 23.2 µM	IC50 (HepG2 (liver)): 18.6 µM; IC50 (A2780 (ovarian)): 10.3 µM
Cc1c(C(=O)C2C(c3cccc(F)c3)C3CSCN3C23C(=O)Nc2ccccc23)cnn1-c1ccccc1 (centres unmarked) [8j, 7'-(3-Fluorophenyl)-6'-(5-methyl-1-phenyl-1H-pyrazole-4-carbonyl)-1',6',7',7a'-tetrahydro-3'H-spiro[indoline-3,5'-pyrrolo[1,2-c]thiazol]-2-one]	125 to 126 °C			slightly trigger apoptosis		able to induce p53 only at high concentrations; also recorded: induce p53, although not at high level and only at high concentrations	did not increase	no further increases; also recorded: did not trigger a further	did not increase	no further increases	slight but not significant MDM2 increase	no further increases; also recorded: did not trigger a further	54 ± 2.5 µM	55 ± 3.3 µM	61.2 ± 19.7 µM	
Cc1c(C(=O)C2C(c3ccccn3)C3CSCN3C23C(=O)Nc2ccccc23)cnn1-c1ccccc1 (centres unmarked) [8l, 6'-(5-Methyl-1-phenyl-1H-pyrazole-4-carbonyl)-7'-(pyridin-2-yl)-3',6',7',7a'-tetrahydro-1'H-spiro[indoline-3,5'-pyrrolo[1,2-c]thiazol]-2-one]	135 to 136 °C				≥ 30 µM											
Cc1c(C(=O)C2C(c3cccc(Br)c3)C3CSCN3C23C(=O)Nc2ccccc23)cnn1-c1ccccc1 (centres unmarked) [8m, 7'-(3-Bromophenyl)-6'-(5-methyl-1-phenyl-1H-pyrazole-4-carbonyl)-3',6',7',7a'-tetrahydro-1'H-spiro[indoline-3,5'-pyrrolo[1,2-c]thiazol]-2-one]	132 to 133 °C	did not induce any changes; also recorded: did not induce p53	downmodulated MDM2; also recorded: clear down modulation; also recorded: down regulation of MDM2	highly significant apoptotic activity; also recorded: considerable high level of apoptosis									48.8 ± 4.9 µM	36.1 ± 14.7 µM	68.1 ± 23.8 µM	MDM2 modulation, dose–response (MDM2; A549, 24 h, 0.01, 0.1, 1, 10 µM): dose-dependent down regulation of MDM2; IC50 (A549 (lung)): 17.7 µM

From PMC10167355, “Optimized spirooxindole-pyrazole hybrids targeting the p53-MDM2 interplay induce apoptosis and synergize with doxorubicin in A549 cells” (Scientific Reports, 2023)
